Experimental data: patent US9505767B2, “Pyrazolo[1,5-A]pyrimidin-7(4H)-onehistone demethylase inhibitors” (Genentech, Inc., priority 2013, dated 2016)

Experiments:
KDM5A [1] = target: T1, KDM5A (Homo sapiens, UniProt P29375); assay: KDM5A Demethylase Assay (MassSpec Assay-A); assay type: biochemical; conditions: full length recombinant Flag tagged KDM5A, 20 nM; MassSpec readout; biotinylated H3K9me1 peptide 4.0 μM; read-out: A KDM5A MS (IC50)
T1 construct: Full length recombinant Flag tagged KDM5A protein was purified from Sf9 insect cells; Flag; made in house; host or cells: Sf9 insect cells
Method: Full length recombinant Flag tagged KDM5A protein was purified from […] insect cells. The demethylation reaction buffer contained 50 mM TrisCl pH 7.4, 0.01% Triton X-100, 0.025 mg/mL BSA, 1 mM ascorbate (Cat# A4034, Sigma Aldrich), 2 mM TCEP (Cat# D9779, Sigma Aldrich), 2.0 μM α-ketoglutarate (# K2010, Sigma Aldrich) and 50 μM Fe2(NH4)2(SO4)2 (Cat# F1543, Sigma Aldrich). In a 25 μL demethylation reaction system, 20 nM recombinant KDM5A and was incubated with compounds for 10 minutes in the above buffer, and then […] (# K2010, Sigma Aldrich), 4.0 μM biotinylated H3K9me1 peptide (1-21 aa), and Fe2(NH4)2(SO4)2 were added to initiate the reaction. (All reagent concentrations are final reagent concentrations.) Reactions were incubated for 30 minutes at room temperature, and then quenched by addition of an equal volume of 1% formic acid. After termination, plates were sealed and frozen at −80° C. for analysis.

KDM5A [2] = target: T1, KDM5A; assay: KDM5A Demethylase Assay (TR-FRET Assay-B); assay type: biochemical; conditions: full length recombinant Flag tagged KDM5A, 2 nM, TrisCl pH 7.4, 3.0 μM α-ketoglutarate, read-out: B KDM5A HTRF (IC50)
Method: Full length recombinant Flag tagged KDM5A protein was purified from Sf9 insect cells. The demethylation reaction buffer contained 50 mM TrisCl pH 7.4, 0.01% Triton X-100, 0.025 mg/mL BSA, 1 mM ascorbate, 2 mM TCEP, 3.0 μM α-ketoglutarate, and 50 μM Fe2(NH4)2(SO4)2. […] After a one hour incubation assays were read on a Perkin-Elmer Envision equipped with a laser source and appropriate filters.

T1 sequence (P29375 whole entry): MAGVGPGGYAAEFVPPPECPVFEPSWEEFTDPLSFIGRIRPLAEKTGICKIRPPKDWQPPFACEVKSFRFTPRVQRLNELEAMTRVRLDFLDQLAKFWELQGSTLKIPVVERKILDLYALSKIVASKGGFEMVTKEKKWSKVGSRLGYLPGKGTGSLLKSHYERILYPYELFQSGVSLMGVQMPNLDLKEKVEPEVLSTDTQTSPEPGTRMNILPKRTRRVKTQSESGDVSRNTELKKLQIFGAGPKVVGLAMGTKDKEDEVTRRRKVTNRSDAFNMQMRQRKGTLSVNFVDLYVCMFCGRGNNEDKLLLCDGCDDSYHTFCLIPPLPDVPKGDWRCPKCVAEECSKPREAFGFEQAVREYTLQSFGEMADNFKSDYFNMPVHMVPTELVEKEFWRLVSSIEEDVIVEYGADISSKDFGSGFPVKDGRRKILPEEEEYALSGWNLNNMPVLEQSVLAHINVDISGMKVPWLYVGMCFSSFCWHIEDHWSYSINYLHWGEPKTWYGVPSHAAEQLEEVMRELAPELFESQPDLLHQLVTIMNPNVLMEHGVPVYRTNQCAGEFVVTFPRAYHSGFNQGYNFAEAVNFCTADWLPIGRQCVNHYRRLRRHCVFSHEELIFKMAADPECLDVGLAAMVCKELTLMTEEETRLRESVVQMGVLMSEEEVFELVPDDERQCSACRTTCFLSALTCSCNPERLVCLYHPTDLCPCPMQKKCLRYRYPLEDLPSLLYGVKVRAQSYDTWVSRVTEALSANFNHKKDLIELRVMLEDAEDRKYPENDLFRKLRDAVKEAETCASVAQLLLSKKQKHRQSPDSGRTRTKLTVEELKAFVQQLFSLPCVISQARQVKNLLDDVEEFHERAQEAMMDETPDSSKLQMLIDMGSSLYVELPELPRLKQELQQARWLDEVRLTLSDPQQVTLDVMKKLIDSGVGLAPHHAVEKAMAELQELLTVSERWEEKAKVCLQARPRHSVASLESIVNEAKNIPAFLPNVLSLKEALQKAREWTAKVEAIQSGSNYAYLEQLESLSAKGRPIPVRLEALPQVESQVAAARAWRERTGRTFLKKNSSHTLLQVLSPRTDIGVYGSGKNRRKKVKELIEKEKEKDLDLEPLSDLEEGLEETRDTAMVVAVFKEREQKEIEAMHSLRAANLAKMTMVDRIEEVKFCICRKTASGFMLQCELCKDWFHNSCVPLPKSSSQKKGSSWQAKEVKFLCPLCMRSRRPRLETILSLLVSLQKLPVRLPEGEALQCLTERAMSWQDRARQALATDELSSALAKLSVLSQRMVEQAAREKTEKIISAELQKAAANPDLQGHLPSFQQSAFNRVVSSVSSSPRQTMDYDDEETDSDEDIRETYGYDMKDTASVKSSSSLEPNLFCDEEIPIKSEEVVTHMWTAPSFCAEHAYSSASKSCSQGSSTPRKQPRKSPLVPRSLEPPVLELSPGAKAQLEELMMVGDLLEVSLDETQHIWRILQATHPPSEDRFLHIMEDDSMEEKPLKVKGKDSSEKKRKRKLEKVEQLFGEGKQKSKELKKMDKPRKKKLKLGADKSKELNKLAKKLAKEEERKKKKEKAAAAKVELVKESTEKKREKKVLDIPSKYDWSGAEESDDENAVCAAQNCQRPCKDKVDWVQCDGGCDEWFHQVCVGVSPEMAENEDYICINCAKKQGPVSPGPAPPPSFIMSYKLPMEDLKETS

SMILES | IC50 (KDM5A [1]) [nM] | IC50 (KDM5A [2]) [nM]
CCc1c(C)[nH]c2c(-n3cnc(-c4cscn4)c3)cnn2c1=O [Example 53, 6-Ethyl-5-methyl-3-(4-(thiazol-4-yl)-1H-imidazol-1-yl)pyrazolo[1,5-a]pyrimidin-7(4H)-one] | 453 | –
CCc1c(C)[nH]c2c(-n3cncc3I)cnn2c1=O [Example 81, 6-ethyl-3-(5-iodo-1H-imidazol-1-yl)-5-methylpyrazolo[1,5-a]pyrimidin-7(4H)-one] | 3050 | –
CCc1c(C)[nH]c2c(-n3cnc(-c4ncccn4)c3)cnn2c1=O [Example 54, 6-ethyl-5-methyl-3-(4-(pyrimidin-2-yl)-1H-imidazol-1-yl)pyrazolo[1,5-a]pyrimidin-7(4H)-one] | 538 | –
CCc1c(C)[nH]c2c(-c3cc(-c4ccccn4)on3)cnn2c1=O [Example 60, 6-Ethyl-5-methyl-3-(5-(pyridin-2-yl)isoxazol-3-yl)pyrazolo[1,5-a]pyrimidin-7(4H)-one] | 4000 | –
CCc1c(C)[nH]c2c(-n3cnc(C(=O)NC)c3)cnn2c1=O [Example 74, 1-(6-ethyl-5-methyl-7-oxo-4,7-dihydropyrazolo[1,5-a]pyrimidin-3-yl)-N-methyl-1H-imidazole-4-carboxamide] | 996 | –
CCc1c(C)[nH]c2c(-n3cnc(-c4cccnc4)c3)cnn2c1=O [Example 45, 6-ethyl-5-methyl-3-(4-(pyridin-3-yl)-1H-imidazol-1-yl)pyrazolo[1,5-a]pyrimidin-7(4H)-one] | 6320 | –
CCc1c(C)[nH]c2c(-c3nnc(-c4ccccn4)o3)cnn2c1=O [Example 57, 6-Ethyl-5-methyl-3-(5-(pyridin-2-yl)-1,3,4-oxadiazol-2-yl)pyrazolo[1,5-a]pyrimidin-7(4H)-one] | 268 | –
CCc1c(C)[nH]c2c(-n3cnc(C(N)=O)c3)cnn2c1=O [Example 55, 1-(6-Ethyl-5-methyl-7-oxo-4,7-dihydropyrazolo[1,5-a]pyrimidin-3-yl)-1H-imidazole-4-carboxamide] | 94.5 | –
CCc1[nH]c2c(-n3cnc(-c4ccccn4)c3)cnn2c(=O)c1CC [Example 51, 5,6-Diethyl-3-(4-(pyridin-2-yl)-1H-imidazol-1-yl)pyrazolo[1,5-a]pyrimidin-7(4H)-one] | 70.8 | –
CCc1c(-c2ccccc2)[nH]c2c(-n3ccnc3)cnn2c1=O [Example 79, 6-ethyl-3-(1H-imidazol-1-yl)-5-phenylpyrazolo[1,5-a]pyrimidin-7(4H)-one] | 43200 | –
CCc1c(C)[nH]c2c(-n3cnc(-c4ccccn4)c3)cnn2c1=O [Example 48, 6-Ethyl-5-methyl-3-(4-(pyridin-2-yl)-1H-imidazol-1-yl)pyrazolo[1,5-a]pyrimidin-7(4H)-one] | 70.5 | –
Cc1[nH]c2c(-n3cnc(-c4ccccn4)c3)cnn2c(=O)c1C [Example 73, 5,6-dimethyl-3-(4-(pyridin-2-yl)-1H-imidazol-1-yl)pyrazolo[1,5-a]pyrimidin-7(4H)-one] | 53.7 | –
CCc1c(C)[nH]c2c(-n3cnc(I)c3)cnn2c1=O [Example 80, 6-ethyl-3-(4-iodo-1H-imidazol-1-yl)-5-methylpyrazolo[1,5-a]pyrimidin-7(4H)-one] | 29400 | –
CCc1c(C)[nH]c2c(-c3nc(C(N)=O)no3)cnn2c1=O [Example 58, 5-(6-Ethyl-5-methyl-7-oxo-4,7-dihydropyrazolo[1,5-a]pyrimidin-3-yl)-1,2,4-oxadiazole-3-carboxamide] | 332 | –
Cc1c(-c2ccccc2)[nH]c2c(-n3cnc(-c4ccccn4)c3)cnn2c1=O [Example 52, 6-Methyl-5-phenyl-3-(4-(pyridin-2-yl)-1H-imidazol-1-yl)pyrazolo[1,5-a]pyrimidin-7(4H)-one] | 470 | –
CCc1c(C)[nH]c2c(-n3cnc4ccccc43)cnn2c1=O [Example 82, 3-(1H-benzo[d]imidazol-1-yl)-6-ethyl-5-methylpyrazolo[1,5-a]pyrimidin-7(4H)-one] | 80000 | –
CCc1c(C)[nH]c2c(-c3nc(-c4ccccn4)no3)cnn2c1=O [Example 59, 6-Ethyl-5-methyl-3-(3-(pyridin-2-yl)-1,2,4-oxadiazol-5-yl)pyrazolo[1,5-a]pyrimidin-7(4H)-one] | 518 | –
CCc1c(C)[nH]c2c(-c3nnc(C(N)=O)o3)cnn2c1=O [Example 56, 5-(6-Ethyl-5-methyl-7-oxo-4,7-dihydropyrazolo[1,5-a]pyrimidin-3-yl)-1,3,4-oxadiazole-2-carboxamide] | 276 | –
Cc1[nH]c2c(-c3cnn(-c4ccccn4)c3)cnn2c(=O)c1F [Example 62, 6-fluoro-5-methyl-3-[1-(2-pyridyl)pyrazol-4-yl]-4H-pyrazolo[1,5-a]pyrimidin-7-one] | – | 212
CCc1c(C)[nH]c2c(-n3ccnc3C)cnn2c1=O [Example 77, 6-ethyl-5-methyl-3-(2-methyl-1H-imidazol-1-yl)pyrazolo[1,5-a]pyrimidin-7(4H)-one] | 3380 | –
CCc1c(-c2ccccc2)[nH]c2c(-n3cnc(-c4ccccn4)c3)cnn2c1=O [Example 47, 6-ethyl-5-phenyl-3-(4-(pyridin-2-yl)-1H-imidazol-1-yl)pyrazolo[1,5-a]pyrimidin-7(4H)-one] | 574 | –
CCc1c(C)[nH]c2c(-n3cnc(C(=O)N(C)C)c3)cnn2c1=O [Example 75, 1-(6-ethyl-5-methyl-7-oxo-4,7-dihydropyrazolo[1,5-a]pyrimidin-3-yl)-N,N-dimethyl-1H-imidazole-4-carboxamide] | 178 | –
Cc1[nH]c2c(-c3cnn(-c4ccccn4)c3)cnn2c(=O)c1Cl [Example 43, 6-chloro-5-methyl-3-[1-(2-pyridyl)pyrazol-4-yl]-4H-pyrazolo[1,5-a]pyrimidin-7-one] | – | 60.5
Cc1cc(=O)n2ncc(-n3cnc(-c4ccccn4)c3)c2[nH]1 [Example 49, 5-Methyl-3-(4-(pyridin-2-yl)-1H-imidazol-1-yl)pyrazolo[1,5-a]pyrimidin-7(4H)-one] | – | 43.7
CCc1c(C)[nH]c2c(-c3cnn(C(=O)N(C)C)c3)cnn2c1=O [Example 34, 4-(6-ethyl-5-methyl-7-oxo-4,7-dihydropyrazolo[1,5-a]pyrimidin-3-yl)-N,N-dimethyl-1H-pyrazole-1-carboxamide] | – | 4180

Continued, values first:

IC50 (KDM5A [1]) [nM] | IC50 (KDM5A [2]) [nM] | SMILES
363 | – | CCc1c(C)[nH]c2c(-c3cnn(-c4ncccc4C)c3)cnn2c1=O [Example 67, 6-ethyl-5-methyl-3-(1-(3-methylpyridin-2-yl)-1H-pyrazol-4-yl)pyrazolo[1,5-a]pyrimidin-7(4H)-one]
3730 | – | CCc1c(C)[nH]c2c(-c3cnn(-c4cccc(OC)n4)c3)cnn2c1=O [Example 70, 6-ethyl-3-(1-(6-methoxypyridin-2-yl)-1H-pyrazol-4-yl)-5-methylpyrazolo[1,5-a]pyrimidin-7(4H)-one]
36.9 | – | CCc1c(C)[nH]c2c(-c3cnn(-c4cc5ccccc5cn4)c3)cnn2c1=O [Example 68, 6-ethyl-3-(1-(isoquinolin-3-yl)-1H-pyrazol-4-yl)-5-methylpyrazolo[1,5-a]pyrimidin-7(4H)-one]
26.3 | – | CCc1c(C)[nH]c2c(-c3cnn(-c4cc(C)ccn4)c3)cnn2c1=O [Example 71, 6-ethyl-5-methyl-3-(1-(4-methylpyridin-2-yl)-1H-pyrazol-4-yl)pyrazolo[1,5-a]pyrimidin-7(4H)-one]
861 | – | CCc1c(C)[nH]c2c(-c3cnn(-c4nccc5ccccc45)c3)cnn2c1=O [Example 66, 6-ethyl-3-(1-(isoquinolin-1-yl)-1H-pyrazol-4-yl)-5-methylpyrazolo[1,5-a]pyrimidin-7(4H)-one]
– | 16.1 | CCc1c(C)[nH]c2c(-c3cnn(-c4ncc(C)cn4)c3)cnn2c1=O [Example 2, 6-ethyl-5-methyl-3-(1-(5-methylpyrimidin-2-yl)-1H-pyrazol-4-yl)pyrazolo[1,5-a]pyrimidin-7(4H)-one]
26.3 | – | CCc1c(C)[nH]c2c(-c3cnn(-c4nccc(C)n4)c3)cnn2c1=O [Example 1]
– | 48.7 | Cc1cnc(-n2cc(-c3cnn4c(=O)c(C5CC5)c(C)[nH]c34)cn2)nc1 [Example 31, 6-cyclopropyl-5-methyl-3-(1-(5-methylpyrimidin-2-yl)-1H-pyrazol-4-yl)pyrazolo[1,5-a]pyrimidin-7(6H)-one]
233 | – | CCc1c(C)[nH]c2c(-c3cnn(-c4cccnn4)c3)cnn2c1=O [Example 69, 6-ethyl-5-methyl-3-(1-(pyridazin-3-yl)-1H-pyrazol-4-yl)pyrazolo[1,5-a]pyrimidin-7(4H)-one]
76 | – | CCc1c(C)[nH]c2c(-c3cnn(-c4cnccn4)c3)cnn2c1=O [Example 72, 6-ethyl-5-methyl-3-(1-(pyrazin-2-yl)-1H-pyrazol-4-yl)pyrazolo[1,5-a]pyrimidin-7(4H)-one]
– | 13.4 | Cc1ccnc(-n2cc(-c3cnn4c(=O)c(C5CC5)c(C)[nH]c34)cn2)c1 [Example 28, 6-cyclopropyl-5-methyl-3-(1-(4-methylpyridin-2-yl)-1H-pyrazol-4-yl)pyrazolo[1,5-a]pyrimidin-7(6H)-one]
